According to patent US11725036B2, “Modified lipidated relaxin B chain peptides and their therapeutic use” (Sanofi, priority 2018, dated 2023):
Starred links: 1 amine or outer side, 2 acyl side, 3 side chain; linkers in the order of their positions; H or OH if unused. Non-standard residues stand in square brackets, D forms with d. Residues, ends and D or L forms follow the SMILES beside them. Groups on a side chain read outwards from the residue. *: point of attachment. X11 = CCCCCCCCCCCCCCCCCC(=O)N[C@@H](CCC(=O)N[C@@H](CCC(=O)N[C@@H](CCC(=O)N[C@@H](CCC(=O)NCCCOCCOCCOCCCNC(=O)CCC(=O)NCCCOCCOCCOCCCNC(=O)CCC(=O)NCCCOCCOCCOCCCN*)C(=O)O)C(=O)O)C(=O)O)C(=O)O; X15 = CCCCCCCCCCCCCCCCCC(=O)N[C@@H](CCC(=O)N[C@@H](CCC(=O)N[C@@H](CCC(=O)NCCCOCCOCCOCCCNC(=O)COCC(=O)NCCCOCCOCCOCCCNC(=O)COCC(=O)NCCCOCCOCCOCCCNC(=O)COCC(=O)*)C(=O)O)C(=O)O)C(=O)O; X1 = CCCCCCCCCCCCCCCC(=O)N[C@@H](CCC(=O)N[C@@H](CCC(=O)N[C@@H](CCC(=O)NCCCOCCOCCOCCCNC(=O)CCC(=O)NCCCOCCOCCOCCCNC(=O)CCC(=O)NCCCOCCOCCOCCCN*)C(=O)O)C(=O)O)C(=O)O; X4 = CCCCCCCCCCCCCCCCCC(=O)N[C@@H](CCC(=O)N[C@@H](CCC(=O)N[C@@H](CCC(=O)NCCCOCCOCCOCCCNC(=O)CCC(=O)NCCCOCCOCCOCCCN*)C(=O)O)C(=O)O)C(=O)O; Cit = NC(=O)NCCC[C@H](N)C(=O)O; Suc = O=C(CCC(=O)[*:2])[*:1]; αMeK = C[C@](N)(CCCCN)C(=O)O; Aib = CC(C)(N)C(=O)O

Target: T1, RXFP1 (Homo sapiens, UniProt Q9HBX9)
T1 construct: OVCAR5 cells expressing endogenous RXFP1; endogenous in cells; host or cells: OVCAR5
T1 sequence (Q9HBX9 1-757): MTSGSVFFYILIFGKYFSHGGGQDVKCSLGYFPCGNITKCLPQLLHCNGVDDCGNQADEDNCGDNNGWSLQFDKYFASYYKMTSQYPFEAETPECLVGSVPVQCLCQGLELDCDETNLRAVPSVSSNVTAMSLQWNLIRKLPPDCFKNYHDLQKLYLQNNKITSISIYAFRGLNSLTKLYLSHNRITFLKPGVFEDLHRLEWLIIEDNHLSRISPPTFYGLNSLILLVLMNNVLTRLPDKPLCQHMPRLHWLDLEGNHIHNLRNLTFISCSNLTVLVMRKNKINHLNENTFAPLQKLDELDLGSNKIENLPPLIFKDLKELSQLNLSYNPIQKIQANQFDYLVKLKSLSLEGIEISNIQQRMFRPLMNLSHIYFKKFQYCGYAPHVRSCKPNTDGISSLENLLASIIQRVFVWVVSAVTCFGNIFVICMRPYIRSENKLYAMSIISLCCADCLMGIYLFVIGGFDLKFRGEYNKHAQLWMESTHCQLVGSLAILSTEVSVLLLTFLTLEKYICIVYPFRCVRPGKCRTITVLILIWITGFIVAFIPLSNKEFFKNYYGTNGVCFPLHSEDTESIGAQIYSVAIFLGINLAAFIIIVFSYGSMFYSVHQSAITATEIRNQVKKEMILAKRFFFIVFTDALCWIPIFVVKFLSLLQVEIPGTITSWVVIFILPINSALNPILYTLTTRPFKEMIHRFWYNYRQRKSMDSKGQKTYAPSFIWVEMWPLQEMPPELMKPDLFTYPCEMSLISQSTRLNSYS
Experiment: OVCAR5 cAMP assay (HTRF)
Type: cell-based
Details: for EC50: OVCAR 5 cells expressing endogenous RXFP1, cAMP readout; for Emax: OVCAR 5 cells, maximal cAMP relative to H2-relaxin
How it was run: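 Endogenous RXFP1 in OVCAR5 cells, pretreated 40 min at 37° C with 1 mM IBMX, then exposed to increasing peptide concentrations in serum-free medium for 30 min at 37° C. cAMP read by HTRF; EC50 by variable-slope sigmoidal fit, Emax as % of H2-relaxin maximal cAMP in same run.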

| EC50 | Emax | Compound |
| --- | --- | --- |
| 0.93 nM | 90% | CCCCCCCCCCCCCCCC(=O)N[C@@H](CCC(=O)N[C@@H](CCC(=O)N[C@@H](CCC(=O)NCCCOCCOCCOCCCNC(=O)CCC(=O)NCCCOCCOCCOCCCNC(=O)CCC(=O)NCCCOCCOCCOCCCNC(=O)CCC(=O)NCCCC[C@H](NC(=O)CNC(=O)[C@H](CCC(=O)O)NC(=O)C(C)(C)NC(=O)C(C)(C)NC(=O)[C@@H](NC(=O)[C@H](CCCNC(N)=O)NC(=O)[C@H](C)NC(=O)[C@H](CCCNC(=N)N)NC(=O)[C@@H](NC(=O)[C@H](CCCCN)NC(=O)[C@H](CCC(=O)O)NC(=O)[C@H](CCCNC(=N)N)NC(=O)CNC(=O)[C@H](CCC(=O)O)NC(=O)[C@H](CC(C)C)NC(C)=O)C(C)C)[C@@H](C)CC)C(=O)N[C@@H](CO)C(=O)N[C@H](C(=O)N[C@@H](Cc1ccccc1)C(=O)N[C@@H](CO)C(=O)N[C@@](C)(CCCCN)C(=O)N[C@@H](CCCNC(=N)N)C(=O)N[C@@H](C)C(=O)N[C@@H](CCCCNC(C)=O)C(N)=O)[C@@H](C)O)C(=O)O)C(=O)O)C(=O)O [compound 12] (Ac-LEGREKVRA[Cit]I[Aib][Aib]EGK([Suc-X1])STFS[αMeK]RAK(Ac)-NH2) |
| 0.48 nM | 95% | CCCCCCCCCCCCCCCC(=O)N[C@@H](CCC(=O)N[C@@H](CCC(=O)N[C@@H](CCC(=O)NCCCOCCOCCOCCCNC(=O)CCC(=O)NCCCOCCOCCOCCCNC(=O)CCC(=O)NCCCOCCOCCOCCCNC(=O)CCC(=O)NCCCC[C@H](NC(=O)CNC(=O)[C@H](CCC(=O)O)NC(=O)C(C)(C)NC(=O)C(C)(C)NC(=O)[C@@H](NC(=O)[C@H](CCCCNC(C)=O)NC(=O)[C@H](C)NC(=O)[C@H](CCCNC(=N)N)NC(=O)[C@@H](NC(=O)[C@H](CCCNC(=N)N)NC(=O)[C@H](CCC(=O)O)NC(=O)[C@H](CCCNC(=N)N)NC(=O)CNC(=O)[C@H](CCC(=O)O)NC(=O)[C@H](CC(C)C)NC(C)=O)C(C)C)[C@@H](C)CC)C(=O)N[C@@H](CO)C(=O)N[C@H](C(=O)N[C@@H](Cc1c[nH]c2ccccc12)C(=O)N[C@@H](CO)C(=O)NC(C)(C)C(=O)N[C@@H](CCCNC(=N)N)C(=O)N[C@@H](CCCCN)C(=O)N[C@@H](CCCCNC(C)=O)C(N)=O)[C@@H](C)O)C(=O)O)C(=O)O)C(=O)O [compound 67] (Ac-LEGRERVRAK(Ac)I[Aib][Aib]EGK([Suc-X1])STWS[Aib]RKK(Ac)-NH2) |
| 0.14 nM | 90% | CCCCCCCCCCCCCCCCCC(=O)N[C@@H](CCC(=O)N[C@@H](CCC(=O)N[C@@H](CCC(=O)NCCCOCCOCCOCCCNC(=O)CCC(=O)NCCCOCCOCCOCCCNC(=O)CCC(=O)NCCCC[C@H](NC(=O)CNC(=O)[C@H](CCC(=O)O)NC(=O)C(C)(C)NC(=O)C(C)(C)NC(=O)[C@@H](NC(=O)[C@H](CCCCNC(C)=O)NC(=O)[C@H](C)NC(=O)[C@H](CCCNC(=N)N)NC(=O)[C@@H](NC(=O)[C@H](CCCCN)NC(=O)[C@H](CCC(=O)O)NC(=O)[C@H](CCCNC(=N)N)NC(=O)CNC(=O)[C@H](CCC(=O)O)NC(=O)[C@H](CC(C)C)NC(C)=O)C(C)C)[C@@H](C)CC)C(=O)N[C@@H](CO)C(=O)N[C@H](C(=O)N[C@@H](Cc1ccccc1)C(=O)N[C@@H](CO)C(=O)N[C@@](C)(CCCCN)C(=O)N[C@@H](CCCNC(=N)N)C(=O)N[C@@H](C)C(=O)N[C@@H](CCCCNC(C)=O)C(N)=O)[C@@H](C)O)C(=O)O)C(=O)O)C(=O)O [compound 34] (Ac-LEGREKVRAK(Ac)I[Aib][Aib]EGK([Suc-X4])STFS[αMeK]RAK(Ac)-NH2) |
| 2.1 nM | 85% | CCCCCCCCCCCCCCCC(=O)N[C@@H](CCC(=O)N[C@@H](CCC(=O)N[C@@H](CCC(=O)NCCCOCCOCCOCCCNC(=O)CCC(=O)NCCCOCCOCCOCCCNC(=O)CCC(=O)NCCCOCCOCCOCCCNC(=O)CCC(=O)NCCCC[C@H](NC(=O)CNC(=O)[C@H](CCC(=O)O)NC(=O)C(C)(C)NC(=O)C(C)(C)NC(=O)[C@@H](NC(=O)[C@H](CCCCNC(C)=O)NC(=O)[C@H](C)NC(=O)[C@H](CCCNC(=N)N)NC(=O)[C@@H](NC(=O)[C@H](CCCCN)NC(=O)[C@H](CCC(=O)O)NC(=O)[C@H](CCCNC(=N)N)NC(=O)CNC(=O)[C@H](CCC(=O)O)NC(=O)[C@H](CC(C)C)NC(C)=O)C(C)C)[C@@H](C)CC)C(=O)N[C@@H](CO)C(=O)N[C@H](C(=O)N[C@@H](Cc1ccccc1)C(=O)NC(C)(C)C(=O)N[C@@H](CCCCN)C(=O)N[C@@H](CCCNC(=N)N)C(=O)N[C@@H](C)C(=O)N[C@@H](CCCCNC(C)=O)C(N)=O)[C@@H](C)O)C(=O)O)C(=O)O)C(=O)O [compound 15] (Ac-LEGREKVRAK(Ac)I[Aib][Aib]EGK([Suc-X1])STF[Aib]KRAK(Ac)-NH2) |
| 0.1 nM | 97% | CCCCCCCCCCCCCCCCCC(=O)N[C@@H](CCC(=O)N[C@@H](CCC(=O)N[C@@H](CCC(=O)NCCCOCCOCCOCCCNC(=O)COCC(=O)NCCCOCCOCCOCCCNC(=O)COCC(=O)NCCCOCCOCCOCCCNC(=O)COCC(=O)NCCCC[C@H](NC(=O)CNC(=O)[C@H](CCC(=O)O)NC(=O)C(C)(C)NC(=O)C(C)(C)NC(=O)[C@@H](NC(=O)[C@H](CCCCNC(C)=O)NC(=O)[C@H](C)NC(=O)[C@H](CCCNC(=N)N)NC(=O)[C@@H](NC(=O)[C@H](CCCCN)NC(=O)[C@H](CCC(=O)O)NC(=O)[C@H](CCCNC(=N)N)NC(=O)CNC(=O)[C@H](CCC(=O)O)NC(=O)[C@H](CC(C)C)NC(C)=O)C(C)C)[C@@H](C)CC)C(=O)N[C@@H](CO)C(=O)N[C@H](C(=O)N[C@@H](Cc1ccccc1)C(=O)N[C@@H](CO)C(=O)N[C@@](C)(CCCCN)C(=O)N[C@@H](CCCNC(=N)N)C(=O)N[C@@H](C)C(=O)N[C@@H](CCCCNC(C)=O)C(N)=O)[C@@H](C)O)C(=O)O)C(=O)O)C(=O)O [compound 32] (Ac-LEGREKVRAK(Ac)I[Aib][Aib]EGK(X15)STFS[αMeK]RAK(Ac)-NH2) |
| 0.1 nM | 98% | CCCCCCCCCCCCCCCCCC(=O)N[C@@H](CCC(=O)N[C@@H](CCC(=O)N[C@@H](CCC(=O)N[C@@H](CCC(=O)NCCCOCCOCCOCCCNC(=O)CCC(=O)NCCCOCCOCCOCCCNC(=O)CCC(=O)NCCCOCCOCCOCCCNC(=O)CCC(=O)NCCCC[C@H](NC(=O)CNC(=O)[C@H](CCC(=O)O)NC(=O)C(C)(C)NC(=O)C(C)(C)NC(=O)[C@@H](NC(=O)[C@H](CCCCNC(C)=O)NC(=O)[C@H](C)NC(=O)[C@H](CCCNC(=N)N)NC(=O)[C@@H](NC(=O)[C@H](CCCCN)NC(=O)[C@H](CCC(=O)O)NC(=O)[C@H](CCCNC(=N)N)NC(=O)CNC(=O)[C@H](CCC(=O)O)NC(=O)[C@H](CC(C)C)NC(C)=O)C(C)C)[C@@H](C)CC)C(=O)N[C@@H](CO)C(=O)N[C@H](C(=O)N[C@@H](Cc1c[nH]c2ccccc12)C(=O)N[C@@H](CO)C(=O)NC(C)(C)C(=O)N[C@@H](CCCNC(=N)N)C(=O)N[C@@H](CCCCN)C(=O)N[C@@H](CCCCNC(C)=O)C(N)=O)[C@@H](C)O)C(=O)O)C(=O)O)C(=O)O)C(=O)O [compound 51] (Ac-LEGREKVRAK(Ac)I[Aib][Aib]EGK([Suc-X11])STWS[Aib]RKK(Ac)-NH2) |
